Test results from US12029818B2 (CRITITECH, INC., priority 2020, dated 2024).

How the values were obtained:
[1] = PXRD solid form and 14 day room temperature stability study
[2] = Shake-flask solubility in organic solvent/water mixtures; format: physicochemical; conditions: methanol and ethanol in water
Method: The drug was added in excess to each solution prepared in duplicate.

[3] = Particle size distribution (PSD) by laser diffraction, Malvern Mastersizer 3000; format: physicochemical
Method: PSD analyses were conducted on a Malvern Mastersizer™ 3000 using the Aero S™ dispersion unit according to manufacturer's instructions.

[4] = Specific surface area by BET sorptometry
Method: SSA determination analyses were conducted on a Porous Materials, Inc., Automated BET Sorptometer BET-202A according to manufacturer's instructions.

- Crystalline/amorphous form by PXRD [1]: crystalline
- Solubility dependence on organic solvent concentration [2]: concentration dependent solubility
- PSD: Volume Dv-10 [3]: 0.839 μm
- PSD: Volume Dv-50 [3]: 6.59 μm
- PSD: Volume Dv-90 [3]: 335 μm
- SSA ([4]; listed as Lapatinib Raw): 2.33 m^2/g
- SSA ([4]; listed as unprocessed material): 1.60 m^2/g
SMILES: CS(=O)(=O)CCNCc1ccc(-c2ccc3ncnc(Nc4ccc(OCc5cccc(F)c5)c(Cl)c4)c3c2)o1 [Lapatinib, N-(3-chloro-4-{[(3-fluorophenyl)methyl]oxy}phenyl)-6-[5-({[2-(methylsulfonyl)ethyl]amino}methyl)-2-furanyl]-4-quinazolinamine]
